Source: ChEMBL document CHEMBL1201862, “PubChem BioAssay data set” (2004)
Active and inactive are the calls of the source.

Legend:
[1] = NIH-3T3 fibroblast cytotoxicity, dose response, cytotoxicity control, cell-based, fluorescence, Alamar Blue, secondary assay (AID 2327); assay type: functional;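 also: NIH-3T3 mouse fibroblasts cultured with fluconazole at 8 µg/mL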
[2] = test system: HEK293; experiment: NOD1 signaling inhibitors, primary screen, cell-based, luminescence, uHTS (AID 1578); assay type: functional; details: Homo sapiens
[3] = test system: Streptococcus sp. 'group A'; experiment: growth inhibition of control SK(-) GAS strain, dose response, counter-screen for streptokinase expression inhibitor project, luminescence, kanamycin, BacTiterGlo, confirmation (AID 1900); assay type: functional, organism-based
[4] = test system: HEK293; experiment: cells; assay type: functional, cell-based; details: Homo sapiens
[5] = target: T1, Streptokinase A (Streptococcus pyogenes serotype M1, UniProt P10520); experiment: S. pyogenes streptokinase expression inhibitors, potency, dose response, plasminogen activation absorbance, OD405 (AID 1914); assay type: functional, Streptococcus pyogenes M1 GAS;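 also: secreted streptokinase activity via plasminogen activation per viability signal from cell pellet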
T1 sequence (P10520 whole entry): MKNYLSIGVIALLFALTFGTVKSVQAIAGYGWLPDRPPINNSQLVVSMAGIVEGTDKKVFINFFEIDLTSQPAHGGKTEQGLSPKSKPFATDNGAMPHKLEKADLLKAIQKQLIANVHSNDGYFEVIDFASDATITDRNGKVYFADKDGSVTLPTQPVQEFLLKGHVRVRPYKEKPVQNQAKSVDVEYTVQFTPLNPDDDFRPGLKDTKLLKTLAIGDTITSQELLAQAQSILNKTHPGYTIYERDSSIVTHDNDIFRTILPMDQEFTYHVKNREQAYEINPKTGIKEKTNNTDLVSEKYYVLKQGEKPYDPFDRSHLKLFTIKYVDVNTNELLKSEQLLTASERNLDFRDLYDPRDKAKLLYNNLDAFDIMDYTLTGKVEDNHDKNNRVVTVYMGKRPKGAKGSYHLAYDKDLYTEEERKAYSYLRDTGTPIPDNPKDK

[6] = C. albicans growth with fluconazole, confirmation, fluorescence, retest (AID 2467); assay type: functional, cell-based
[7] = test system: HEK293; experiment: cells; assay type: functional, cell-based; details: Homo sapiens; remark: listed apart in the source
[8] = test system: HEK293; experiment: NOD2 signaling inhibitors in MDP-stimulated cells, cell-based, uHTS, luminescence (AID 2001); assay type: functional; details: Homo sapiens
[9] = target: Serine/threonine-protein phosphatase (Candida dubliniensis (strain CD36 / CBS 7987 / NCPF 3949 / NRRLY-17841) (Yeast), UniProt B9W6M3); experiment: calcineurin pathway inhibitors in yeast reporter, dose response, S. cerevisiae, CDRE-lacZ, luminescence, secondary (AID 2388); assay type: functional, cell-based;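 also: yeast reporter cells carrying a calcineurin-responsive lacZ construct stimulated with calcium chloride; luminescent beta-galactosidase reporter signal in whole cells rather than isolated phosphatase activity; potency for inhibition where a drop in reporter signal means calcineurin blockade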
[10] = test system: Streptococcus; experiment: Group A Streptococcus viability loss, dose response, counter-screen for streptokinase expression inhibitor project, luminescence, BacTiterGlo (AID 1915); assay type: functional, organism-based;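 also: potency for reduction of bacterial viability or growth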
[11] = target: Tumor necrosis factor (Homo sapiens, UniProt P01375); experiment: TNFa-triggered NF-kB activation inhibitors, SAR follow-up, cell-based, revised (AID 2337); assay type: functional
Tumor necrosis factor, sequence (P01375 whole entry, the tested form may be a part): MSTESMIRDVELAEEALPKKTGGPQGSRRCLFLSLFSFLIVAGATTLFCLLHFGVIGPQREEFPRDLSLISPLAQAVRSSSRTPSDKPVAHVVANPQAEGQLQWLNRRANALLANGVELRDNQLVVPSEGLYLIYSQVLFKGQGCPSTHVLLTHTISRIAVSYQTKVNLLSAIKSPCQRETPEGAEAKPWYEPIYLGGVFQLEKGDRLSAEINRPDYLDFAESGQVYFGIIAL

[12] = target: Nucleotide-binding oligomerization domain-containing protein 1 (Homo sapiens, UniProt Q9Y239); experiment: NOD1 signaling inhibitors, SAR follow-up, revised (AID 2333); assay type: functional
Nucleotide-binding oligomerization domain-containing protein 1, sequence (Q9Y239 whole entry, the tested form may be a part): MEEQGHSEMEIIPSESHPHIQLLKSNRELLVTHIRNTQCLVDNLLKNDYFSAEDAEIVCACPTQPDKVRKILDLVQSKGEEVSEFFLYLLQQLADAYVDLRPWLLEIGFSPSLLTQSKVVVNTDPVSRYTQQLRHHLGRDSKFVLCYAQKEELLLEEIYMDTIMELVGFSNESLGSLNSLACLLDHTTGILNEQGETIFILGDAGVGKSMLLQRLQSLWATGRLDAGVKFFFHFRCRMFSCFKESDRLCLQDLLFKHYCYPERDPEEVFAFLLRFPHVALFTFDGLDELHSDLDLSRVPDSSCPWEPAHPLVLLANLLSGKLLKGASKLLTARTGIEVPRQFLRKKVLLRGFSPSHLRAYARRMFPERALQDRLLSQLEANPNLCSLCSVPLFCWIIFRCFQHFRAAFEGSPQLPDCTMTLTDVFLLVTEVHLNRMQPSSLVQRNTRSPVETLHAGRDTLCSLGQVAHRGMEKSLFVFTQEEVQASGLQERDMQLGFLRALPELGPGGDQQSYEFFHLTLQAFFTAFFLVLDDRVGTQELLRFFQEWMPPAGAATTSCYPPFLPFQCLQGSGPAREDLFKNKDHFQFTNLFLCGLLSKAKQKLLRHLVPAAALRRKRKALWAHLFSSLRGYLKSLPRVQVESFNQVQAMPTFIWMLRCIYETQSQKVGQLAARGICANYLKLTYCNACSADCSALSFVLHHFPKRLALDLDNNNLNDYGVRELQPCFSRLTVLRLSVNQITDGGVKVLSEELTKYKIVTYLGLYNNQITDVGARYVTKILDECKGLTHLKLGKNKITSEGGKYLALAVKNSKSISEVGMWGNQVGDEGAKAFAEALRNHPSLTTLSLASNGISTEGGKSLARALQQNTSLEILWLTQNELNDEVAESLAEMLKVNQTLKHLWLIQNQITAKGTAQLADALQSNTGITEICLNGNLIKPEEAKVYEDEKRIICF

[13] = target: Nucleotide-binding oligomerization domain-containing protein 2 (Homo sapiens, UniProt Q9HC29); experiment: PubChem AID 2334; assay type: functional
Nucleotide-binding oligomerization domain-containing protein 2, sequence (Q9HC29 whole entry, the tested form may be a part): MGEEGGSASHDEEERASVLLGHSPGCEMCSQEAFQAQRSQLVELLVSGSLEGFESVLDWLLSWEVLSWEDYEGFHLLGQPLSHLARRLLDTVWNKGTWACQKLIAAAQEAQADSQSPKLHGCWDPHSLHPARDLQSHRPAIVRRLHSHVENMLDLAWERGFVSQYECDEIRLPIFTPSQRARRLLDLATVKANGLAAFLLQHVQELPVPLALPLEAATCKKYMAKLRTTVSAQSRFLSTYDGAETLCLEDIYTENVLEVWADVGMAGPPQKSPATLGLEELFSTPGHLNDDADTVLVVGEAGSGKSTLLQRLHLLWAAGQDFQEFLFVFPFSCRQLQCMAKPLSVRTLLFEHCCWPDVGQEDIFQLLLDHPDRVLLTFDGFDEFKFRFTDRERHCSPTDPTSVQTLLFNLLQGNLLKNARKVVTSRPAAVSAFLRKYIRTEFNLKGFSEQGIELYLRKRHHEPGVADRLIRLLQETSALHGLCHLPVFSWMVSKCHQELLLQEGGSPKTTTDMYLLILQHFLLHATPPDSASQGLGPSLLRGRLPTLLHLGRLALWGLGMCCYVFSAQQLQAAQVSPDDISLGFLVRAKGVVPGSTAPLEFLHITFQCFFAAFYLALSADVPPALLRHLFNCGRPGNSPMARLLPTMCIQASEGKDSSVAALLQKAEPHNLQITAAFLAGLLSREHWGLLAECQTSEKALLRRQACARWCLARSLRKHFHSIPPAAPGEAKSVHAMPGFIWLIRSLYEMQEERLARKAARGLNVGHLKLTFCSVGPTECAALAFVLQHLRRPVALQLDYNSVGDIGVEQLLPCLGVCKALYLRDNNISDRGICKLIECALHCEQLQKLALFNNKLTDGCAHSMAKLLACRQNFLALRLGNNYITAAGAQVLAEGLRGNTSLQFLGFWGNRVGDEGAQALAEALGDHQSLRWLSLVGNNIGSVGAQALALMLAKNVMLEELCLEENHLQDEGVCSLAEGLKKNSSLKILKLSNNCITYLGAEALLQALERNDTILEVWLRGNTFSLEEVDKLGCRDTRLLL

[14] = target: ATP-dependent molecular chaperone HSP82 (Candida albicans (strain WO-1) (Yeast), UniProt C4YTQ8); experiment: loss of DOC-induced GRE-beta-galactosidase reporter signal, dose response, Hsp90 inhibitor project, S. cerevisiae, luminescence (AID 2400); assay type: functional, cell-based;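 also: beta-galactosidase luminescence from glucocorticoid response element reporter as proxy for Hsp90 function; inhibitor potency where signal loss means Hsp90 inhibition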
[15] = target: T2, Carboxy-terminal domain RNA polymerase II polypeptide A small phosphatase 1 (Homo sapiens, UniProt Q9GZU7); experiment: inhibitors of CTDSP1, concentration-response testing, biochemical assay, absorbance-based, actives from ultra-high-throughput screening (AID 540297); assay type: functional
T2 sequence (Q9GZU7 whole entry): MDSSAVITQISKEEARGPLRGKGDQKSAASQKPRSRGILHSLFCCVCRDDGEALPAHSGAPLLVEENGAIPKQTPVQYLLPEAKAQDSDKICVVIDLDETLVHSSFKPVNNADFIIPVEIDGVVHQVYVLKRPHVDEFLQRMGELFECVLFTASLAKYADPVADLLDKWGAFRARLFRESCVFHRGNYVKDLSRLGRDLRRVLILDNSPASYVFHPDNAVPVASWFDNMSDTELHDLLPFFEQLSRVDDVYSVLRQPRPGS

[16] = target: T3, Corticotropin-releasing factor receptor 2/Corticotropin-releasing factor-binding protein (Homo sapiens, UniProt P24387+Q13324); experiment: Dose Response confirmation of uHTS hits for small molecule antagonists of the CRF-binding protein and CRF-R2 receptor complex.; assay type: functional; details: read-out: IC50_Mean
T3 sequence (Q13324 whole entry): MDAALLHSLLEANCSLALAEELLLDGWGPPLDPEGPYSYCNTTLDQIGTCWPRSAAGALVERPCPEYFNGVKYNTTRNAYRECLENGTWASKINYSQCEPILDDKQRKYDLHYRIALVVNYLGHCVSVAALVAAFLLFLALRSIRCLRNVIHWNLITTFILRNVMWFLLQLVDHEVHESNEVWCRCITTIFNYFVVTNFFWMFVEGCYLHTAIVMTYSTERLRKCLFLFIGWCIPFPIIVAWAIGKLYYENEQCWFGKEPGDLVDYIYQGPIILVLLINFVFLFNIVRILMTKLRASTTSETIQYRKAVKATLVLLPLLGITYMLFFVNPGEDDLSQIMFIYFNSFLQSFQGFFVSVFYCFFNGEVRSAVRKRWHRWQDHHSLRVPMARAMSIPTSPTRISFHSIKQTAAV
T3 sequence (P24387 whole entry): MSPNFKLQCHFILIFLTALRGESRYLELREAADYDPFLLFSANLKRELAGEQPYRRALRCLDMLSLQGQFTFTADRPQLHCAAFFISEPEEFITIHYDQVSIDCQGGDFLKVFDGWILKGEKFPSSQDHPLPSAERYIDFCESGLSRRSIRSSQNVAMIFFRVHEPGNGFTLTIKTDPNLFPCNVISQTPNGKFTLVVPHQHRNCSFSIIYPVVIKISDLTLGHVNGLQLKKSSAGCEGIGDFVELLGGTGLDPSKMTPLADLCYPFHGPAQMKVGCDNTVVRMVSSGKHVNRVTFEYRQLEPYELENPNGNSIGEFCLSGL

[17] = target: T3, Corticotropin-releasing factor receptor 2/Corticotropin-releasing factor-binding protein; experiment: activators of CRF receptor 2 with binding protein – uHTS hits, confirmation (AID 602473); assay type: functional; details: read-out: EC50_Mean
[18] = CRF-BP/CRF-R2 complex antagonists, dose response, cell-based, uHTS hits, 384-well (AID 651639); assay type: functional, Homo sapiens; details: read-out: IC50_Mean
[19] = test system: HEK293; experiment: cells; details: Homo sapiens
[20] = target: Beta-2 adrenergic receptor (Homo sapiens, UniProt P07550); experiment: beta2AR agonists driving receptor internalization, dose response, cell-based, FAP fluorogen, flow cytometry, cherry pick 1 (AID 588763); assay type: functional
Beta-2 adrenergic receptor, sequence (P07550 whole entry): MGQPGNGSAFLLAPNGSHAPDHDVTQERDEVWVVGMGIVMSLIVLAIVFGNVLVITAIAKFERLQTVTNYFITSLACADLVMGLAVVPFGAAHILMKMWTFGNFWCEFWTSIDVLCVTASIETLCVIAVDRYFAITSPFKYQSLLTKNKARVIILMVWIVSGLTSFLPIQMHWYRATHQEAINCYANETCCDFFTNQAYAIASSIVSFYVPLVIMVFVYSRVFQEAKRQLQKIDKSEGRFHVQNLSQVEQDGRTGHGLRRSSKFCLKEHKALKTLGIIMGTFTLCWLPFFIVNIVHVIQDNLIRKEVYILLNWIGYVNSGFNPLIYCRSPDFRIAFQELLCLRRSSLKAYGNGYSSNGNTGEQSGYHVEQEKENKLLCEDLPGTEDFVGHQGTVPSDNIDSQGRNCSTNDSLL

[21] = test system: Vero; experiment: Vero E6 cell cytotoxicity, dose response, cytotoxicity control (AID 540298); assay type: functional; details: Chlorocebus sabaeus
[22] = test system: MDCK; experiment: MDCK cell cytotoxicity, dose response, cytotoxicity control (AID 540296); assay type: functional; details: Canis lupus familiaris
[23] = test system: MDCK; experiment: antiviral activity against H1N1 influenza, dose response, cell-based, strain KY136 (AID 540257); assay type: functional; details: Canis lupus familiaris
[24] = target: T4, Endoribonuclease toxin MazF (Escherichia coli K-12, UniProt P0AE70); experiment: MazF toxin RNase activators, dose response, biochemical, fluorescence, single-stranded RNA substrate, uHTS hits (AID 588481); assay type: functional
T4 sequence (P0AE70 whole entry): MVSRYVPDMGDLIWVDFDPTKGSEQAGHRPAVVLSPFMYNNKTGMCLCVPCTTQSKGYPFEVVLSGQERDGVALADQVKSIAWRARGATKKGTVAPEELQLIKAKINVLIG

[25] = target: T4, Endoribonuclease toxin MazF; experiment: fluorescent RNA oligo signal without MazF, dose response, counter-screen for MazEF activator project, biochemical, fluorescence, single-stranded RNase substrate (AID 588502); assay type: functional
[26] = target: Phospholipase D1 (Homo sapiens, UniProt Q13393); experiment: PLD1 inhibitor potency in cells, dose response (AID 602151); assay type: functional;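 also: cellular PLD1 assay in Calu-1 cells stimulated with PMA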
Phospholipase D1, sequence (Q13393 whole entry): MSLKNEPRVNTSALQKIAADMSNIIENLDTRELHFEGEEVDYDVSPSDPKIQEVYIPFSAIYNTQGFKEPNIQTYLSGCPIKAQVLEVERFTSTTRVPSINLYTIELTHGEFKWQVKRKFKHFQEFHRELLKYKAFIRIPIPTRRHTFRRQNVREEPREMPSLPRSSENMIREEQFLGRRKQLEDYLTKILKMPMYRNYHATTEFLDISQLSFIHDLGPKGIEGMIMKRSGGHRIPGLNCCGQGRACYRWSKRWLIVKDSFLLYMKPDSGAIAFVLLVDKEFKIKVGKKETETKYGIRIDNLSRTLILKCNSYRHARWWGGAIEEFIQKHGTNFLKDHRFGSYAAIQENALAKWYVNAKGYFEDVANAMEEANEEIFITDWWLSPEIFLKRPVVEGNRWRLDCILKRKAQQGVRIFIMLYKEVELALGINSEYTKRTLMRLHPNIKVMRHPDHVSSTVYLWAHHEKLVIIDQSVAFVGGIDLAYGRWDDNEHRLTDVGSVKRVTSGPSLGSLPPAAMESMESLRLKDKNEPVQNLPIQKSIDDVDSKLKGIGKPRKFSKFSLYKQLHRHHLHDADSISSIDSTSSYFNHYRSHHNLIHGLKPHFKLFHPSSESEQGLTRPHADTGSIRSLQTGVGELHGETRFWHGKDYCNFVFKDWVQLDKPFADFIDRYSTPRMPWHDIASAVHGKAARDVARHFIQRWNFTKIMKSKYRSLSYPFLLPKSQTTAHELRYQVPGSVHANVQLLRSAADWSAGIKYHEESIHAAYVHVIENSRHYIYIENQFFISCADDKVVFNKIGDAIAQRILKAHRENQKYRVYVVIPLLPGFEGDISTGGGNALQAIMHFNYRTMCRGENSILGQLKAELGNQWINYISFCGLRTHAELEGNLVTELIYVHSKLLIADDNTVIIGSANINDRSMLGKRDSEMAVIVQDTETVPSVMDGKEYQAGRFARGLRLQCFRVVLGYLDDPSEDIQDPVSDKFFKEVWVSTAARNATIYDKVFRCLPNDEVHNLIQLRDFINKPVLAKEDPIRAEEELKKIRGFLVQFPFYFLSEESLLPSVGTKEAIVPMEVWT

[27] = target: Phospholipase D2 (Homo sapiens, UniProt O14939); experiment: PLD2 inhibitor potency in cells, dose response (AID 602147); assay type: functional;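 also: cellular assay in HEK293 cells overexpressing GFP-tagged PLD2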
[28] = test system: NIH3T3; experiment: cytotoxicity in NIH-3T3 fibroblasts, dose response, cytotoxicity control for antifungal drug resistance project, cell-based, Alamar Blue, fluconazole, dry powder (AID 488809); assay type: functional; details: Mus musculus
[29] = test system: INS1; experiment: protection of INS-1E cells from cytokine death, dose response, ATP luminescence, dry powder (AID 488844); assay type: functional, cell-based; details: Rattus norvegicus
[30] = inhibitors of cytokine-induced nitrite release, dose response, cell-based, Griess absorbance, INS-1E, dry powder, set 3 (AID 488870); assay type: functional; details: Rattus norvegicus
[31] = test system: INS1; experiment: inhibitors of cytokine-induced nitrite release, dose response, cell-based, Griess absorbance, INS-1E, dry powder, set 2 (AID 488868); assay type: functional; details: Rattus norvegicus
[32] = test system: INS1; experiment: protection from cytokine-induced mitochondrial depolarization, dose response, cell-based, INS-1E, JC-1 fluorescence ratio, dry powder (AID 488931); assay type: functional; details: Rattus norvegicus
[33] = test system: BJ; experiment: cytotoxicity toward BJ-TERT fibroblasts, dose response, cell-based, RAS-independent, luminescence (AID 1933); assay type: functional; details: Homo sapiens
[34] = test system: Vero; experiment: host cell cytotoxicity of antiviral hits, dose response, cytotoxicity control for West Nile virus antiviral project, secondary assay (AID 1650); assay type: functional; details: Chlorocebus sabaeus
[35] = test system: BJ; experiment: cells; assay type: functional, cell-based; details: Homo sapiens
[36] = test system: BJ; experiment: cytotoxicity toward BJ-TERT-LT-ST fibroblasts, dose response, cell-based, RAS-independent, luminescence (AID 1935); assay type: functional; details: Homo sapiens;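 also: BJ fibroblasts immortalized with TERT plus LT and ST oncogenes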
[37] = cytotoxicity toward DRD oncogenic fibroblasts, dose response, cell-based, non-viral oncogenic, luminescence (AID 1934); assay type: functional; details: Homo sapiens
[38] = test system: BJ; experiment: cytotoxicity toward Ras-transformed BJeLR fibroblasts, dose response, cell-based, alamar blue fluorescence, cherrypicked samples (AID 2631); assay type: functional; details: Homo sapiens;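 also: confirmatory dose-response assay in RAS-dependent BJ fibroblasts engineered with TERT, LT and ST, with cytotoxicity read by fluorescence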
[39] = target: Dual specificity tyrosine-phosphorylation-regulated kinase 1A (Rattus norvegicus, UniProt Q63470); assay type: biochemical, Homo sapiens
[40] = MDA-MB-231 cell growth inhibition, dose response, cytotoxicity control for RAD54 inhibitor project, CellTiter-Glo luminescence, cherry-pick (AID 651692); assay type: functional, cell-based
[41] = target: DNA repair and recombination protein RAD54-like (Homo sapiens, UniProt Q92698); experiment: inhibitors of human RAD54 branch migration, confirmation, biochemical, fluorescence, cherry-picked samples, dose series (AID 651657); assay type: functional
DNA repair and recombination protein RAD54-like, sequence (Q92698 whole entry): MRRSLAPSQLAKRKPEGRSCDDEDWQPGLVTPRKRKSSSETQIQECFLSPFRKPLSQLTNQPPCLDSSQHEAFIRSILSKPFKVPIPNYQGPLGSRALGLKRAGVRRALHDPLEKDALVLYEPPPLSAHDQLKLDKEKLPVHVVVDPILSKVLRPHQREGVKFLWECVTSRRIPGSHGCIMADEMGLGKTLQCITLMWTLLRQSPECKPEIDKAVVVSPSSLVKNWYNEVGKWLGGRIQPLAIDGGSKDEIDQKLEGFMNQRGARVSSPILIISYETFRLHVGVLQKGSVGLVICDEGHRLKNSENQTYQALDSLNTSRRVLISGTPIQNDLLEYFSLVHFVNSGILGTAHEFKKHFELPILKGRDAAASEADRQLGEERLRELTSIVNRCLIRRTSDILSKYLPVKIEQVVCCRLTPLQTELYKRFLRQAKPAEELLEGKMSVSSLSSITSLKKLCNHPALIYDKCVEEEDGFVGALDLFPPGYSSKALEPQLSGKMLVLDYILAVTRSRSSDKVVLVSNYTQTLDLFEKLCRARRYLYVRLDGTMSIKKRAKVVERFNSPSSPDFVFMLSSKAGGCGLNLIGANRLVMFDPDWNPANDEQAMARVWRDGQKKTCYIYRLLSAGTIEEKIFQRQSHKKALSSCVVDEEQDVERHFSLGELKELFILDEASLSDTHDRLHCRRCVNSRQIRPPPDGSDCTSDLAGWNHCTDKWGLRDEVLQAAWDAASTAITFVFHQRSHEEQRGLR

[42] = target: DNA repair protein RAD52 homolog (Homo sapiens, UniProt P43351); assay type: functional, biochemical
DNA repair protein RAD52 homolog, sequence (P43351 whole entry): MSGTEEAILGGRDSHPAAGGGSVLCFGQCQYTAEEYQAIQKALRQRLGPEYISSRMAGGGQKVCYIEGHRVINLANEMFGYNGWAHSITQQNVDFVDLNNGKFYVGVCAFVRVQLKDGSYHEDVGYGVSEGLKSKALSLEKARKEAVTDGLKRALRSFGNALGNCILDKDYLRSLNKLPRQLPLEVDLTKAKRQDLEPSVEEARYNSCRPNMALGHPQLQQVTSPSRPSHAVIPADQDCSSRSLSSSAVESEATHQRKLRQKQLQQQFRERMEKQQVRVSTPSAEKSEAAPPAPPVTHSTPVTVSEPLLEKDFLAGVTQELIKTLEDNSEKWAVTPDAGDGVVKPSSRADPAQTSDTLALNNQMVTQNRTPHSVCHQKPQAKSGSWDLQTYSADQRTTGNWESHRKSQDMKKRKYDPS

O=[N+]([O-])c1ccc(O)c(Nc2ncnc3ccc(Br)cc23)c1
inactive: EC50 [1] > 160 µM | IC50 [4] > 20 µM | IC50 [7] > 20 µM | IC50 [8] 18.8 µM | EC50 [9] > 180 µM | EC50 [14] > 160 µM | IC50 [18] > 20 µM | IC50 [19] > 20 µM
> 150 µM (not active): EC50 [5]
active: EC50 [2] 2.64 µM | EC50 [3] 6.15 µM | EC50 [6] 0.429 µM | EC50 [10] 46.2 µM | IC50 [11] 6.28 µM | IC50 [12] 2.15 µM | IC50 [13] 3.53 µM | IC50 [15] 5.46 µM | IC50 [16] 5.76 µM | EC50 [17] 5.78 µM

COc1ccc(CN2CCC(Oc3ccc(C(=O)N4CCCCC4)cc3)CC2)cc1C
inactive: EC50 [20] 25.3 µM

Cc1ccccc1NC(=O)/C(=C/c1ccco1)c1ccccc1
active: CC50 [21] > 40 µM | CC50 [22] > 40 µM | IC50 [23] 15.4 µM

Cc1sc(NC(=O)CSc2nnc(N)[nH]2)c(C#N)c1C
inactive: EC50 [24] > 99 µM | EC50 [25] > 99 µM

O=C(NCCN1CCC(n2c(=O)[nH]c3cc(I)ccc32)CC1)c1ccc(Cl)cc1
active: IC50 [26] 0.005 µM | IC50 [27] 0.345 µM

COc1ccc2c(c1)c1nc3n(c(=O)c1n2CC(=O)N1CCC(Cc2ccccc2)CC1)CCS3
active: AC50 [28] 207 µM

COc1cccc(S(=O)(=O)N(C)C[C@@H]2Oc3c(NC(=O)Nc4cccc5ccccc45)cccc3C(=O)N([C@@H](C)CO)C[C@H]2C)c1
active: AC50 [29] 77 µM | AC50 [30] 29 µM | AC50 [31] 28.7 µM | AC50 [32] 98.9 µM

Nc1nc(N)c2c(ccc3[nH]ccc32)n1
> 38 µM (not active): EC50 [36]
active: EC50 [33] 112 µM | CC50 [34] 5.14 µM | AC50 [39] 5.51 µM | AC50 [40] 4.07 µM | AC50 [41] 38.6 µM | AC50 [42] 12 µM
inconclusive: EC50 [35] 4.8 µM | EC50 [37] 14.4 µM
inactive: EC50 [38] > 133 µM
